Earlier results as cited in PMC7804859, “A metabolically stable apelin-17 analog decreases AVP-induced antidiuresis and improves hyponatremia” (Nature Communications, 2021).
Where two headings read alike, the source gives them in different places.

System: anti-K17F serum
Details: cited from earlier work; for cross-reactivity with the apelin antiserum: ref De Mota et al, PNAS, 2004
Description: The columns were then treated as described in 207 the paragraph above.

| Substance | recognition by antibody directed against K17F | cross-reactivity with the apelin antiserum (pE13F taken as 100%) [%] | cross-reactivity with the apelin antiserum |
| --- | --- | --- | --- |
| K16P: K17F after removal of the phenylalanine residue at the extreme end of the C-terminus (KFRRQRPRLSHKGPMP; UniProt Q9ULZ1 61-76, looked up, fragment) | does not recognize | < 0.3 | – |
| angiotensin II (DRVYIHPF; Angiotensin-2; UniProt P01019 25-32, looked up) | – | – | Negligible cross-reactivity |
| angiotensin III (RVYIHPF; Angiotensin-3; UniProt P01019 26-32, looked up) | – | – | Negligible cross-reactivity |
| apelin 36: molecular form of apelin identified in vivo (LVQPRGSRNGPGPWQGGRRKFRRQRPRLSHKGPMPF; Apelin-36; UniProt Q9ULZ1 42-77, looked up) | – | 100 | – |
| neuropeptide Y | – | – | Negligible cross-reactivity |
